Experimental data reported in patent US9795140B2, “Molecules having pesticidal utility, and intermediates, compositions, and processes, related thereto” (priority 2015, dated 2017).

Key:
Type in all cases: in vivo
[1] = test system: Cabbage Looper (Trichoplusia ni, TRIPNI); assay: Bioassay on Cabbage Looper (CL), 128-well diet tray assay; details: 168 h, 50 μg/cm^2 on artificial diet, second instar larvae, 25° C., five to seven days, average of eight wells, read-out: CL % Control (or Mortality) rating
Protocol: (§1) Certain molecules disclosed in this document were tested against BAW and CL using procedures described in the following examples. In the reporting of the results, the “BAW & CL Rating Table” was used (See Table Section).
Bioassays on CL were conducted using a 128-well diet tray assay, one to five second instar CL larvae were placed in each well (3 mL) of the diet tray that had been previously filled with 1 mL of artificial diet to which 50 μg/cm^2 of the test molecule (dissolved in 50 μL of 90:10 acetone-water mixture) had been applied (to each of eight wells) and then allowed to dry. Trays were covered with a clear self-adhesive cover, vented to allow gas exchange, and held at 25° C., 14:10 light-dark for five to seven days. Percent mortality was recorded for the larvae in each well; activity in the eight wells was then averaged. The results are indicated in the table entitled “Table ABC: Biological Results” (See Table Section).

[2] = test system: Yellow Fever Mosquito (Aedes aegypti, AEDSAE); assay: Bioassay on Yellow Fever Mosquito (YFM) larvae, 96-well plate; details: about 1 day-old larvae, room temperature, 3 days, scored on mortality
Protocol: Certain molecules disclosed in this document were tested against YFM using procedures described in the following paragraph. In the reporting of the results, the “GPA & YFM Rating Table” was used (See Table Section).
Master plates containing 400 μg of a molecule dissolved in 100 μL of dimethyl sulfoxide (DMSO) (equivalent to a 4000 ppm solution) are used. A master plate of assembled molecules contains 15 μL per well. To this plate, 135 μL of a 90:10 water/acetone mixture is added to each well. A robot is programmed to dispense 15 μL aspirations from the master plate into an empty 96-well shallow plate (“daughter” plate). There are 6 reps (“daughter” plates) created per master. The created “daughter” plates are then immediately infested with YFM larvae.
The day before plates are to be treated, mosquito eggs are placed in Millipore water containing liver powder to begin hatching (4 g. into 400 mL). After the “daughter” plates are created using the robot, they are infested with 220 μL of the liver powder/larval mosquito mixture (about 1 day-old larvae). After plates are infested with mosquito larvae, a non-evaporative lid is used to cover the plate to reduce drying. Plates are held at room temperature for 3 days prior to grading. After 3 days, each well is observed and scored based on mortality. The results are indicated in the table entitled “Table ABC: Biological Results” (See Table Section).

[3] = test system: Beet Armyworm (Spodoptera exigua, LAPHEG); assay: Bioassay on Beet Armyworm (BAW), 128-well diet tray assay; details: 168 h, 50 μg/cm^2 on artificial diet, second instar larvae, 25° C., five to seven days, average of eight wells, read-out: BAW % Control (or Mortality) rating
Protocol: as §1
Bioassays on BAW were conducted using a 128-well diet tray assay. One to five second instar BAW larvae were placed in each well (3 mL) of the diet tray that had been previously filled with approximately 1.5 mL of artificial diet to which 50 μg/cm^2 of the test molecule (dissolved in 50 μL of 90:10 acetone-water mixture) had been applied (to each of eight wells) and then allowed to dry. Trays were covered with a clear self-adhesive cover, vented to allow gas exchange, and held at 25° C., 14:10 light-dark for five to seven days. Percent mortality was recorded for the larvae in each well; activity in the eight wells was then averaged. The results are indicated in the table entitled “Table ABC: Biological Results” (See Table Section).

| Compound | mortality at 50 µg/cm2 [1] [%] | YFM % Control (or Mortality) rating [2] | mortality at 50 µg/cm2 [3] [%] |
| --- | --- | --- | --- |
| CNC(=O)c1cc(NC(=O)[C@H]2[C@H](c3cc(Cl)cc(Cl)c3)C2(Cl)Cl)ccc1Cl (relative stereo) [F1, trans-2-chloro-5-(2,2-dichloro-3-(3,5-dichlorophenyl)cyclopropane-1-carboxamido)-N-methylbenzamide] | 50 to 100 | A (80-100) | 50 to 100 |
| O=C(NCC(F)(F)F)c1cccc(NC(=O)[C@H]2[C@H](c3cc(Cl)cc(Cl)c3)C2(Cl)Cl)c1 (relative stereo) [F3, trans-3-(2,2-Dichloro-3-(3,5-dichlorophenyl)cyclopropane-1-carboxamido)-N-(2,2,2-trifluoroethyl)benzamide] | 50 to 100 | A (80-100) | 50 to 100 |
| O=C(CNC(=O)c1cc(NC(=O)[C@H]2[C@H](c3cc(Cl)cc(Cl)c3)C2(Cl)Cl)ccc1Cl)NCC(F)(F)F (relative stereo) [F5, trans-2-Chloro-5-(2,2-dichloro-3-(3,5-dichlorophenyl)cyclopropane-1-carboxamido)-N-(2-oxo-2-((2,2,2-trifluoroethyl)amino)ethyl)benzamide] | 50 to 100 |  | 50 to 100 |
| O=C(NCc1cccnc1)c1cc(NC(=O)[C@H]2[C@H](c3cc(Cl)c(Cl)c(Cl)c3)C2(Cl)Cl)ccc1Cl (relative stereo) [F7, trans-2-Chloro-5-(2,2-dichloro-3-(3,4,5-trichlorophenyl)cyclopropane-1-carboxamido)-N-(pyridin-3-ylmethyl)benzamide] | 50 to 100 | A (80-100) | 50 to 100 |
| O=C(NCc1ccccn1)c1cc(NC(=O)[C@H]2[C@H](c3cc(Cl)cc(Cl)c3)C2(Cl)Cl)ccc1Cl (relative stereo) [F8, trans-2-Chloro-5-(2,2-dichloro-3-(3,5-dichlorophenyl)cyclopropane-1-carboxamido)-N-(pyridin-2-ylmethyl)benzamide] | 50 to 100 |  | 50 to 100 |
| O=C(NCc1ccccn1)c1cc(NC(=O)[C@H]2[C@H](c3cc(Cl)c(Cl)c(Cl)c3)C2(Cl)Cl)ccc1Cl (relative stereo) [F9, trans-2-Chloro-5-(2,2-dichloro-3-(3,4,5-trichlorophenyl)cyclopropane-1-carboxamido)-N-(pyridin-2-ylmethyl)benzamide] | 50 to 100 |  | 50 to 100 |
| C=CCONC(=O)c1cc(NC(=O)[C@H]2[C@H](c3cc(Cl)cc(Cl)c3)C2(Cl)Cl)ccc1Cl (relative stereo) [F10, trans-N-(Allyloxy)-2-chloro-5-(2,2-dichloro-3-(3,5-dichlorophenyl)cyclopropane-1-carboxamido)benzamide] | 50 to 100 |  | 50 to 100 |
| C=CCONC(=O)c1cc(NC(=O)[C@H]2[C@H](c3cc(Cl)c(Cl)c(Cl)c3)C2(Cl)Cl)ccc1Cl (relative stereo) [F11, trans-N-(Allyloxy)-2-chloro-5-(2,2-dichloro-3-(3,4,5-trichlorophenyl)cyclopropane-1-carboxamido)benzamide] | 50 to 100 |  | 50 to 100 |
| CN(C)CCCCNC(=O)c1cc(NC(=O)[C@H]2[C@H](c3cc(Cl)cc(Cl)c3)C2(Cl)Cl)ccc1Cl (relative stereo) [F50, trans-2-Chloro-5-(2,2-dichloro-3-(3,5-dichlorophenyl)cyclopropane-1-carboxamido)-N-(4-(dimethylamino)butyl)benzamide] | 50 to 100 |  | 0 |
| O=C(NCCCl)c1cc(NC(=O)[C@H]2[C@H](c3cc(Cl)cc(Cl)c3)C2(Cl)Cl)ccc1Cl (relative stereo) [F51, trans-2-Chloro-N-(2-chloroethyl)-5-(2,2-dichloro-3-(3,5-dichlorophenyl)cyclopropane-1-carboxamido)benzamide] | 50 to 100 | B (More than 0-Less than 80) | 50 to 100 |
| CSCCNC(=O)c1cc(NC(=O)[C@H]2[C@H](c3cc(Cl)cc(Cl)c3)C2(Cl)Cl)ccc1Cl (relative stereo) [F52, trans-2-Chloro-5-(2,2-dichloro-3-(3,5-dichlorophenyl)cyclopropane-1-carboxamido)-N-(2-(methylthio)ethyl)benzamide] | 50 to 100 | B (More than 0-Less than 80) | 50 to 100 |
| COCCNC(=O)c1cc(NC(=O)[C@H]2[C@H](c3cc(Cl)cc(Cl)c3)C2(Cl)Cl)ccc1Cl (relative stereo) [F53, trans-2-Chloro-5-(2,2-dichloro-3-(3,5-dichlorophenyl)cyclopropane-1-carboxamido)-N-(2-methoxyethyl)benzamide] | 50 to 100 | B (More than 0-Less than 80) | 50 to 100 |
| CCOCCNC(=O)c1cc(NC(=O)[C@H]2[C@H](c3cc(Cl)cc(Cl)c3)C2(Cl)Cl)ccc1Cl (relative stereo) [F54, trans-2-Chloro-5-(2,2-dichloro-3-(3,5-dichlorophenyl)cyclopropane-1-carboxamido)-N-(2-ethoxyethyl)benzamide] | 50 to 100 | B (More than 0-Less than 80) | 50 to 100 |
| O=C(NCCCCl)c1cc(NC(=O)[C@H]2[C@H](c3cc(Cl)cc(Cl)c3)C2(Cl)Cl)ccc1Cl (relative stereo) [F57, trans-2-Chloro-N-(3-chloropropyl)-5-(2,2-dichloro-3-(3,5-dichlorophenyl)cyclopropane-1-carboxamido)benzamide] | 50 to 100 | D (No activity noticed in this bioassay) | 50 to 100 |
| COCCOCCCNC(=O)c1cc(NC(=O)[C@H]2[C@H](c3cc(Cl)cc(Cl)c3)C2(Cl)Cl)ccc1Cl (relative stereo) [F58, trans-2-Chloro-5-(2,2-dichloro-3-(3,5-dichlorophenyl)cyclopropane-1-carboxamido)-N-(3-(2-methoxyethoxy)propyl)benzamide] | 50 to 100 | A (80-100) | 50 to 100 |
| C#CCN(C)C(=O)c1cc(NC(=O)[C@H]2[C@H](c3cc(Cl)cc(Cl)c3)C2(Cl)Cl)ccc1Cl (relative stereo) [F65, trans-2-Chloro-5-(2,2-dichloro-3-(3,5-dichlorophenyl)cyclopropane-1-carboxamido)-N-methyl-N-(prop-2-yn-1-yl)benzamide] | 50 to 100 |  | 50 to 100 |
| CN(CC#N)C(=O)c1cc(NC(=O)[C@H]2[C@H](c3cc(Cl)cc(Cl)c3)C2(Cl)Cl)ccc1Cl (relative stereo) [F66, trans-2-Chloro-N-(cyanomethyl)-5-(2,2-dichloro-3-(3,5-dichlorophenyl)cyclopropane-1-carboxamido)-N-methylbenzamide] | 50 to 100 |  | 50 to 100 |
| C[S+]([O-])CCNC(=O)c1cc(NC(=O)[C@H]2[C@H](c3cc(Cl)cc(Cl)c3)C2(Cl)Cl)ccc1Cl (relative stereo) [F74, trans-2-chloro-5-(2,2-dichloro-3-(3,5-dichlorophenyl)cyclopropane-1-carboxamido)-N-(2-(methylsulfinyl)ethyl)benzamide] | 50 to 100 |  | 50 to 100 |
| O=C(NCC(F)(F)F)c1cc(NC(=O)[C@H]2[C@H](c3cc(Cl)cc(Cl)c3)C2(Cl)Cl)cc(Cl)c1Cl (relative stereo) [F93, trans-2,3-Dichloro-5-(2,2-dichloro-3-(3,5-dichlorophenyl)cyclopropane-1-carboxamido)-N-(2,2,2-trifluoroethyl)benzamide] | 50 to 100 |  | 50 to 100 |
| O=C(NCC(F)(F)F)c1cc(NC(=O)C2C(c3cc(F)c(F)c(F)c3)C2(Cl)Cl)ccc1Cl (stereo not drawn) [F127, 2-Chloro-5-cis-(2,2-dichloro-3-(3,4,5-trifluorophenyl)cyclopropane-1-carboxamido)-N-(2,2,2-trifluoroethyl)benzamide] |  | A (80-100) |  |
